Tests used:
winter wheat [1] = assay: Normalised plant growth of winter wheat at another site (Example 1, FIG. 2); type: in vivo; conditions: pre-em
Experimental: Similar experiments were carried out at another site where the effect of seed depth was to be determined, see Example 3 below. Control experiments were conducted with the conventional herbicides Trooper and Xerton, as defined above.

winter wheat [2] = assay: Normalised plant count of winter wheat, field trials (Example 1, FIG. 1); type: in vivo; conditions: average of 6 field trials
Experimental: A herbicide composition consisting of an SC of 450 g/L napropamide-m was applied to winter wheat either pre- or post-emergence. The normalised plant count was determined as a percentage of the plant count observed in the absence of the herbicide. Control experiments were conducted with the conventional herbicide Trooper, as defined above.
Results from an average of 6 field trials (napropamide; Trooper low dose: 4 sites; Trooper high dose: 2 sites) with herbicide application in October are shown in FIG. 1. […] Plant survival after emergence was 100% of the survival rate in the absence of napropamide.

## CCN(CC)C(=O)C(C)Oc1cccc2ccccc12 (stereo not drawn) [napropamide, N,N-diethyl-2-(α-naphthoxy) propionamide]
Winter wheat [1]
  Plant survival after emergence: comparable with that following application of conventional herbicides Trooper/Malibu and Xerton
  effect on the growth of winter wheat: very low effect
Winter wheat [2]; % of the survival rate in the absence of napropamide
  Plant survival after emergence: 100%
Winter wheat [2]; herbicide application in October
  effect on the growth of winter wheat: no detectable effect
